Assay results reported in PubChem BioAssay AID2252 (Southern Research Specialized Biocontainment Screening …, 2010).
Where “and” joins values, the source holds several entries; their conditions need not be identical. Equal entries are not always repeated.

Test system: THP-1 viability, CellTiter-Glo luminescence, 72 h
Test: PubChem AID 2252

SMILES | EC50
COc1ccc(C(=O)NC(=S)NNC(=O)c2cnccn2)cc1OC | 6.82 µM
Cc1c2ccncc2c(C)c2c1[nH]c1ccccc12 | 2.72 µM
O=C(CCc1ccccc1)NNC(=O)c1ccccn1 | 18.2 µM
CCN(CC)c1ccc(CNc2nc3ccccc3n2CCN2CCCCC2)cc1 | 16.5 µM
c1ccc2c(c1)C(=NC1CCCCC1)NC2=NC1CCCCC1 | 4.25 µM
CN(C)CC/C=C1\c2ccccc2Sc2cc(F)c(Cl)cc21 | 10.8 µM
O=C(NCc1cccnc1)c1ccc(COc2ccc(Cl)cc2)cc1 | 43.8 µM
Cc1ccc2nc(/C(C#N)=C\c3ccc([N+](=O)[O-])o3)[nH]c2c1 | 1.25 µM
COc1cc(Br)cc(C=Nc2cccc(C(F)(F)F)c2)c1O | 50 µM
COc1ccc(C(=O)NC(=S)NNC(=O)c2cnccn2)cc1 | 2.98 µM
CCCCCCCCCC[N+](C)(C)CC/C=C1/c2ccccc2Sc2ccc(Cl)cc21 | 1.99 µM
Cc1cc(O)c2c(c1)C(=O)C13C(=C2O)C(=O)[C@H]2[C@@H](O)[C@@H]1[C@H]1[C@H](O)[C@@H]3C(=O)C3=C(O)c4c(O)cc(C)cc4C(=O)C312 (stereo partly specified) | 6.36 µM
CCCCCCCNC(=O)C1(CC2CC(c3cccc(Br)c3)=NO2)CCNCC1 (stereo unspecified) | 7 µM
O=S1(=O)Nc2c(ccc3cccnc23)-c2ccccc21 | 1.2 µM
c1ccc2c(c1)nc(N1CCOCC1)c1c3ccccc3[nH]c21 | < 0.1 µM
O=C(/C=C/c1ccc(Cl)cc1)NCCCn1ccnc1 | < 0.1 µM
COc1ccc2nc(Nc3ccccc3)sc2c1 | < 0.1 µM
CC(=O)NC(c1ccc(Cl)cc1Cl)c1ccc2cccnc2c1O (stereo unspecified) | 7.25 µM
Oc1c(Br)cc(Br)cc1Oc1ccc(Br)cc1Br | 26.9 µM
Cc1oc2c(O)c(O)ccc2c(=O)c1-c1ccccc1 | 24.9 µM
O=C(O)c1cn(C2CC2)c2cc(N3CCN(S(=O)(=O)c4ccc5c(c4)OCCO5)CC3)c(F)cc2c1=O | < 0.1 µM
COc1ccc(N2C3=C(CC4=C2CC(C)(C)CC4=O)C(=O)CC(C)(C)C3)cc1 | 7.53 µM

SMILES | EC50
CN(C)CCCNc1cc(C(C)(C)C)nc2c(-c3ccccc3)cnn12 | 6.48 µM
Cc1ccc(-c2c[n+](CC(=O)Nc3nc(-c4ccccc4)cs3)c3n2CCC3)cc1 | 13.5 µM
O=C(Nc1ccc(Cl)cc1)N1CCOC12CCC1(CC2)OCCO1 | < 0.1 µM
Cc1cccc(C(=O)NNC(=S)NC(=O)c2cccs2)c1 | 14.6 µM
CN1CCN(C2=Cc3ccccc3Sc3cc(F)c(F)cc32)CC1 | 14.8 µM
OCCN1CCN(Cc2cc(Cl)c3cccnc3c2O)CC1 | 7.5 µM
Cc1cc(C)c2c(N)c3ccccc3nc2n1 | 12.4 µM
CCCCOc1ccc(Br)cc1CSC(=N)N | 5.93 µM
CCCCCCCCCCCCCCCC[N+](C)(C)CCN(Cc1ccc(OC)cc1)c1ncccn1 | 0.36 µM
O=C(CN1C2=NCCCN2c2ccccc21)c1ccc(Br)s1 | 41.9 µM
CCCC(=O)c1c(NC)cc(C)oc1=O | 15.9 µM
CCCCCOc1ccc(C)cc1CN(CCCl)CCCl | 28.9 µM
C#CCOCCOCCOCCNc1nc(N2CCN(C(=O)CCCCCCCCCCNC(=O)[C@H](CO)n3cc(CCCSC)nn3)CC2)nc(N2CCN(C(=O)CCCCCCCCCCNC(=O)[C@H](CCCN=C(N)N)n3cc(C[C@@H](C)CC)nn3)CC2)n1 | 9.01 µM
COc1ccc(C(=O)NC(=S)NNC(=O)c2cccnc2)cc1 | 21.4 µM
Clc1ccc(OCCCNCc2ccccc2)c2ccccc12 | 23.4 µM
Cc1cc(C)nc(/N=C(\N)Nc2ccc(SC(F)F)cc2)n1 | 12.8 µM
c1ccc(CNc2nc(N3CCN(Cc4ccccc4)CC3)nc3ccccc23)cc1 | 8.41 µM
[O-][n+]1c2c(c3c4non(O)c4ccc31)CCCC2 | 47.7 µM
O=c1c2ccccc2nc(COc2ccccc2)n1/N=C/c1ccc(O)cc1O | 1.46 µM
COc1cc(Br)cc(/C=N/c2ncn[nH]2)c1O | 49.9 µM
Nc1cccc2nc3ccccc3cc12 | 5.32 µM
CC[C@H](C)[C@@H](CN[C@H](C)CNC)NCCC(c1ccccc1)c1ccccc1 | 7.07 µM

SMILES | EC50
Cc1cc(C)c2nc(C)cc(N/N=C/c3ccc(O)cc3)c2c1 | 1.91 µM
CC1CCCC(NC(=O)COC(=O)CCSc2ccccc2)C1C (stereo unspecified) | < 0.1 µM
COc1cc([N+](=O)[O-])cc(/C=N/NC(=O)c2cccnc2)c1O | 29.7 µM
CCN(CC)CCn1c(NCc2cc(OC)ccc2OC)nc2ccccc21 | 42.7 µM
O=C(NNc1nc2ccc(F)cc2s1)c1cccc(F)c1 | 8.07 µM
c1cc2c(cc1C1CCCCC1)c1c3n2CCCNC3CCC1 (stereo unspecified) | 5.18 µM
N=c1n(CC(=O)c2ccc(Br)s2)c2ccccc2n1Cc1ccccc1 | 4.4 µM
COc1cc(/C=N/N=C(N)N)ccc1OCc1ccc(Cl)cc1 | 7.26 µM
CC(Nc1nc(N2CCCC2)nc2ccccc12)c1ccccc1 (stereo unspecified) | 9.31 µM
O=C(N/N=C/c1cc(Cl)ccc1O)c1cccnc1 | 2.87 µM
O=[N+]([O-])c1cc(CN2CCN(c3cccc(C(F)(F)F)c3)CC2)c2cccnc2c1O | 1.74 µM
Cc1[nH]cnc1C(=O)N/N=C/c1ccc([N+](=O)[O-])s1 | 13.3 µM
O=C(/C=C/c1ccccc1Cl)c1ccccc(=O)c1O | 12.9 µM
CN(C)CCCN(C(=O)c1ccc2c(c1)CCCC2)c1nc2ccc(Cl)cc2s1 | 9.82 µM
C=CCN(c1ccccc1)S(=O)(=O)c1cccc2cccnc12 | 49.4 µM
CC(Oc1ccc(Br)cc1)c1nc2c3ccccc3nc(=S)n2[nH]1 (stereo unspecified) | 17.9 µM
COc1ccc(OCC(=O)Nc2ccc3c(c2)nc(CCN2CCC(C)CC2)n3C)cc1 | 35.1 µM
O=C(NC1CCCCC1)c1ccc([N+](=O)[O-])o1 | 9.5 µM
CC(NCC(O)COc1ccc2ccccc2c1)c1ccccc1 (stereo unspecified) | 6.71 µM
COc1cc(/C=C/[N+](=O)[O-])ccc1O | 12.1 µM
c1cncc(CSc2ccc(-c3cccs3)nn2)c1 | 35.2 µM
CSc1ccc2c(c1)C(N1CCN(C)CC1)Cc1ccccc1S2 (stereo unspecified) | 9.33 µM

SMILES | EC50
CCc1ccc(NC(=O)C[n+]2cc(-c3ccc(C)cc3)n3c2CCC3)cc1 | 5.71 µM
NCCCC[C@H]1CN=C(N)N1CCC12CC3CC(CC(C3)C1)C2 | 49.4 µM
Cc1nc2ccccc2nc1N/N=C/c1ccc(O)cc1O | 3.62 µM
Oc1ccc(N=Nc2ccc(Br)cc2)c(O)c1 | 17.8 µM
CN(C)CCCN1c2ccccc2Sc2ccc(C(F)(F)F)cc21 | 14.6 µM
Cc1ccc2c(c1)c1c(n2CC(O)CNC2CCCCC2)CCCC1 (stereo unspecified) | 7.7 µM
O=C1c2cccc3cccc(c23)C(=O)C1(O)O | 30.2 µM
CC(=O)NC(c1ccc2ccccc2c1)c1ccc2cccnc2c1O (stereo unspecified) | 0.36 µM
OC(CNCC1CCCO1)Cn1c2ccc(Cl)cc2c2cc(Cl)ccc21 (stereo unspecified) | 12.9 µM
O=C(Nc1nc(-c2ccccn2)cs1)c1ccc(Cl)s1 | 0.84 µM
c1cnc2c(c1)ccc1cccnc12 | 3.14 µM and 2.97 µM
O=C(N/N=C\c1c[nH]c2ccccc12)c1ccc(O)cc1 | < 0.1 µM
O=C(N/N=C/c1ccc([N+](=O)[O-])s1)c1cccnc1 | 14.9 µM
CNCCCC1c2ccccc2C=Cc2ccccc21 | 24.5 µM
CCCCCCCCC[n+]1cccc2c3ccccc3ccc21 | 0.82 µM
Cc1nnc(N/N=C/c2ccccn2)[nH]c1=O | 1.62 µM
CN1CCN(C(c2ccc(Br)cc2)c2cc(Cl)c3cccnc3c2O)CC1 (stereo unspecified) | 2 µM
CN1CCN(C2Cc3cc(F)ccc3Sc3ccc(Cl)cc32)CC1 (stereo unspecified) | 14.7 µM
CN(C)CCNC(=O)c1ccc(COc2ccc(Cl)cc2Cl)cc1 | 13.8 µM
c1ccc2c(c1)OC(CCCN1CCCCC1)c1ccccc1S2 (stereo unspecified) | 21.8 µM
